Laboratory results from ChEMBL document CHEMBL1201862, “PubChem BioAssay data set” (2004).
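Cells were grown in 96-well plates and exposed to each compound for 48 hours at five concentrations; endpoints were interpolated linearly between bracketing concentrations, or set to the highest concentration if not reached. At the GI50, growth is halved.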 Calls of active or inactive are those of the source. Rule as the data show it: active = GI50 up to about 1.1 µM and inactive = higher.

Experiments:
Experiment in all cases: inhibition of tumour cell growth, NCI panel, 48 h
[1] = system: MDA-N
[2] = system: HT-29
[3] = system: SF-295
[4] = system: HOP-62
[5] = system: SK-MEL-2
[6] = system: MDA-MB-231
[7] = system: DU-145
[8] = system: SR
[9] = system: MOLT-4
[10] = system: A498
[11] = system: UACC-62
[12] = system: SK-OV-3
[13] = system: 786-0
[14] = system: Malme-3M
[15] = system: LOX IMVI
[16] = system: RXF 393
[17] = system: T47D
[18] = system: NCI-H23
[19] = system: OVCAR-3
[20] = system: XF498

Row | SMILES | GI50 [1] | GI50 [2] | GI50 [3] | GI50 [4] | GI50 [5] | GI50 [6] | GI50 [7] | GI50 [8] | GI50 [9] | GI50 [10] | GI50 [11] | GI50 [12] | GI50 [13] | GI50 [14] | GI50 [15] | GI50 [16] | GI50 [17] | GI50 [18] | GI50 [19] | GI50 [20]
1 | COC(=O)C(Cc1c[nH]c2ccccc12)NC(=O)c1ccc(-c2ccc(Cl)cc2Cl)o1 (stereo unspecified) | 48.2 µM (inactive) | 15.7 µM (inactive) | 40.5 µM (inactive) | 45.8 µM (inactive) | 34.8 µM (inactive) | 15.5 µM (inactive) | 71.6 µM (inactive) | 26.1 µM (inactive) | 17.6 µM (inactive) | 15.5 µM (inactive) | 43.3 µM (inactive) | > 100 µM (inactive) | 43.3 µM (inactive) | > 100 µM (inactive) | 53 µM (inactive) | 28.5 µM (inactive) | 27.5 µM (inactive) | 73.3 µM (inactive) | 36.4 µM (inactive) | –
2 | CCOC(=O)CCC(NC(=O)c1ccc(OCc2ccc3nc(-c4ccccc4)c(Cl)nc3c2)cc1)C(=O)OCC (stereo unspecified) | > 100 µM (inactive) | > 31.6 µM (inactive) | 22 µM (inactive) | > 31.6 µM (inactive) | 12.4 µM (inactive) | 24.3 µM (inactive) | > 31.6 µM (inactive) | 12.9 µM (inactive) | > 31.6 µM (inactive) | 36.1 µM (inactive) | > 31.6 µM (inactive) | 52.1 µM (inactive) | 16.6 µM (inactive) | > 100 µM (inactive) | > 100 µM (inactive) | 2.08 µM (inactive) | 16.6 µM (inactive) | 17.2 µM (inactive) | > 31.6 µM (inactive) | –
3 | Cc1nc2ccccc2c(=O)n1/N=C(\N=N\c1cc(Cl)ccc1Cl)c1ccc(N(C)C)cc1 | – | 42 µM (inactive) | – | 26.9 µM (inactive) | – | – | – | – | 25.2 µM (inactive) | 60.4 µM (inactive) | 34.5 µM (inactive) | 28.2 µM (inactive) | 73.5 µM (inactive) | – | 63.4 µM (inactive) | 27.2 µM (inactive) | – | 34.8 µM (inactive) | – | 2.79 µM (inactive)
4 | c1csc(-c2ccc(-c3cccs3)c3nsnc23)c1 | 17.9 µM (inactive) | 49.8 µM (inactive) | 42.3 µM (inactive) | 35.6 µM (inactive) | > 48.6 µM (inactive) | 22.4 µM (inactive) | 33.8 µM (inactive) | 6.47 µM (inactive) | 8.89 µM (inactive) | > 100 µM (inactive) | > 100 µM (inactive) | > 49.7 µM (inactive) | 22.8 µM (inactive) | > 39.1 µM (inactive) | 26.3 µM (inactive) | > 22 µM (inactive) | 0.141 µM (active) | 22 µM (inactive) | 2.04 µM (inactive) | –
5 | O=C1c2ccccc2-[n+]2ccc3c([nH]c4ccccc43)c21 [FASCAPLYSIN CHLORIDE] | 0.191 µM (active) | 0.37 µM (active) | 0.232 µM (active) | 1.14 µM (inactive) | 0.226 µM (active) | 0.22 µM (active) | 1.15 µM (inactive) | 0.132 µM (active) | 0.285 µM (active) | 1.58 µM (inactive) | 0.242 µM (active) | 1.56 µM (inactive) | 0.427 µM (active) | 0.0586 µM (active) | 0.245 µM (active) | 0.384 µM (active) | 0.755 µM (active) | 0.31 µM (active) | 0.145 µM (active) | –
6 | CCCOC(=O)c1cc(O)c(O)c(O)c1 [PROPYL GALLATE] | 14.7 µM (inactive) | 32.2 µM (inactive) | 47.5 µM (inactive) | 33.8 µM (inactive) | 28.1 µM (inactive) | 58.1 µM (inactive) | 30.3 µM (inactive) | > 100 µM (inactive) | 5.83 µM (inactive) | > 100 µM (inactive) | 24.7 µM (inactive) | > 100 µM (inactive) | 41.4 µM (inactive) | 74.6 µM (inactive) | 16.1 µM (inactive) | 19.3 µM (inactive) | 62.1 µM (inactive) | > 100 µM (inactive) | 25.7 µM (inactive) | –
